Experimental findings from PubChem BioAssay AID179 (DTP/NCI, 2004) are described below.

In the experiment the test system is CEM cells HIV-1 protection, formazan growth assay. As to the kind of experiment: NCI AIDS Antiviral Assay. The conditions noted are these: for IC50: measured here: growth of uninfected CEM cells. A digest of the protocol:
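Soluble formazan readout of cell growth; CEM cells ± HIV-1; 5 drug concs. ≥50% protection → retest; ≥50% again = moderately active; reproducible 100% = confirmed active.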

Activity calls are given as the source filed them.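 How the source made its calls: active means compounds giving half or more protection of infected cells from virus-caused growth loss, again on retest; inactive means the rest.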 Bounds are passed on as bounds.

As usually defined, the EC50 is the midpoint of the concentration-response curve. For orientation: IC50 means the concentration at which inhibition is half-maximal. A high value points to a need for much substance. With `CC(C)CC(NC(=O)C(C)(CI)Cc1ccccc1)C(=O)Nc1ccccc1` (configuration not stated), the EC50 is over 200 µM and the IC50 worked out at 170 µM.

Consider `O=C1C(NS(=O)(=O)c2ccccc2)=C(n2cnc3ccccc32)C(=O)c2ccccc21`, for which the EC50 is over 200 µM and the half-maximal inhibitory concentration (IC50) was 145 µM.

`O=CCCCC(Sc1ccccc1)Sc1ccccc1`: the outcome was inactive.

`CC1=NNC(N)=N/C1=C\C(Sc1ccc(Cl)cc1)c1ccc([N+](=O)[O-])cc1` (configuration not stated): the EC50 is over 117 µM and the IC50 amounted to 30.9 µM.

For `COC(OC)C1OCC(n2cc(F)c(=O)[nH]c2=O)C1O` (configuration not stated), the EC50 is over 200 µM and the IC50 was over 200 µM.

Turning to `O=C(CC(C(=O)c1ccsc1)c1cccs1)c1ccsc1` (configuration not stated), the EC50 was over 200 µM and the concentration for half-maximal inhibition (IC50) is 15.5 µM.

As to `CCOC(=O)[C@@]12C(C)=CC(=O)O[C@]1(C)C[C@H]2C#N`, the EC50 is over 1000 µM and the IC50 is over 1000 µM.

For `OC(c1ccsc1)c1ccsc1`, the EC50 was over 200 µM and the concentration for half-maximal inhibition (IC50) was over 200 µM.

With `COc1ccc(OC2OC(CO)C(O)C(O)C2O)cc1` (configuration not stated), the EC50 is over 200 µM and the IC50 was over 200 µM.

For `Cn1c(=O)cc2[nH]c3ccccc3n2c1=O`, the EC50 is over 63.1 µM and the IC50 is over 63.1 µM.

Regarding `Fc1nc(-c2c3ccccc3c3sc4ccccc4n23)nc(N2CCOCCOCCOCCOCC2)n1`, the EC50 was over 200 µM and the IC50 worked out at 51.3 µM.

As to `COC(=O)c1c(COC(=O)NC(C)C)c2n(c1C)CS(=O)(=O)C2`, the EC50 is over 200 µM and the IC50 is over 200 µM.

For `CC(/C=N/N(C)C1=NCCCCN1)=N/N(C)C1=NCCCCN1`, the EC50 is over 200 µM and the IC50 is over 200 µM.

For `O=C(O)CCCC[P+](c1ccccc1)(c1ccccc1)c1ccccc1`, the EC50 is over 200 µM and the IC50 was over 200 µM.

As to `CC1(O)C2(c3ccccc3)CCC[N+]1(C)CC2` (configuration not stated), the result was inactive.

For `C/C(=N\NC(=O)c1ccncc1)c1cccc(C(F)(F)F)c1`, the EC50 was over 85.1 µM and the IC50 was over 85.1 µM.

Regarding `CCN(CC)CCCn1c(=O)c2ccccc2n2c3c(=O)n(C)c(=O)n(C)c3nc12`, the EC50 was over 200 µM and the IC50 came out at 1.05 µM.

Consider `COc1ccc2c(c1)c(=O)c1ccccc1n2/C=C/C(=O)O`, for which the EC50 was over 617 µM and the IC50 amounted to 105 µM.

In the case of `CC(=O)N(C(C)=O)n1c(Cc2ccc(C)cc2)nn(C(C)=O)c1=O`, the EC50 was over 200 µM and the IC50 was over 200 µM.

Turning to `Cc1cn(C2C=CC(COP(=O)(OCC(=O)C(C)(C)C)OCC(=O)C(C)(C)C)O2)c(=O)[nH]c1=O` (configuration not stated), the EC50 is 1.29 µM and the IC50 was over 200 µM.

`CC(C)(C)C1CCC2c3c([nH]c4ccccc34)C3C(=O)N(c4cc(Br)cc(Br)c4)C(=O)C3C2C1` (configuration not stated): the EC50 is over 200 µM and the IC50 amounted to 12.6 µM.

Consider `Cc1sc2nc3n(c(=O)c2c1C)N=CN(c1ccc(Cl)cc1)C3`, for which the EC50 is 9.33 µM and the IC50 is 50.1 µM.

Consider `O=C(N/N=C\c1ccccn1)c1ccncc1`, for which the EC50 is over 200 µM and the IC50 came to 91.2 µM.

For the molecule `C/C=C(/CCC1NCCc2c1[nH]c1ccccc21)[Si](C)(C)C` (configuration not stated), the result was inactive.

In the case of `O=S(=O)(N(c1ccc(Cl)cn1)S(=O)(=O)C(F)(F)F)C(F)(F)F`, the EC50 is over 200 µM and the IC50 is over 200 µM.

Turning to `O=C(Nc1ccc(N=C(Nc2ccccc2)c2ccccc2)cc1)c1ccc(C(=O)Nc2ccc(N=C(Nc3ccccc3)c3ccccc3)cc2)cc1`, the EC50 was over 200 µM and the IC50 was found to be 18.2 µM.

Turning to `O=[N+]([O-])c1ccc(/C(=C\c2ccccc2)Cn2ccnc2)cc1`, the EC50 is over 200 µM and the IC50 stood at 31.6 µM.

For `Nc1nc(Cl)cc(NCCCCCCNc2cc(Cl)nc(N)n2)n1`, the result was inactive.

On to `Cc1sc2nc3n(c(=O)c2c1C)N=CN(c1ccc(F)cc1)C3`, for which the EC50 was 30.9 µM and the IC50 is over 100 µM.

In the case of `Cc1ccccc1NCN1C(=O)S/C(=C2\C(=O)N(C)c3ccc(Br)cc32)C1=O`, the EC50 was over 200 µM and the IC50 was found to be 11.7 µM.

In the case of `CCOC(=O)C12CCC(=O)C=C1[C@@H](C)C(=O)CC2` (some centres not stated), the EC50 is over 1000 µM and the IC50 was found to be 363 µM.

Turning to `NC(=O)c1sc2nc3ccccc3n2c1N`, the EC50 is over 200 µM and the IC50 is over 200 µM.

Regarding `CNC(=O)OCc1c(COC(=O)NC)c2n(c1C)CS(=O)(=O)C2`, the EC50 is over 200 µM and the IC50 is over 200 µM.

For the molecule `OC1=C(O)c2ccccc21`, the EC50 is over 1860 µM and the IC50 is over 1860 µM.

As for `CCOC1C2c3cc4c(cc3CC(C#N)(c3ccccc32)N1C(=O)c1ccccc1)OCO4` (configuration not stated), the outcome was inactive.

In the case of `c1ccc(N2N=NC3C4CC(C32)C2C4N=NN2c2ccccc2)cc1` (configuration not stated), the EC50 was over 200 µM and the IC50 is over 200 µM.

In the case of `Cc1nc(C)c(N2CCN(S(N)(=O)=O)CC2)c(=O)[nH]1`, the EC50 is over 200 µM and the IC50 was over 200 µM.

On to `C1CN(C23OC4(N5CCOCC5)C5C6CC(C7C6C4C72)C53)CCO1` (configuration not stated), for which the EC50 was over 200 µM and the IC50 is over 200 µM.

For the molecule `CC1(C)CN=C(Nc2ccc(F)cc2)S1`, the EC50 was over 200 µM and the IC50 is over 200 µM.

`CC(C(=O)NCCNC(=O)CCC(=O)N(C)O)C(=O)NCCNC(=O)CCC(=O)N(C)O`: the EC50 was over 200 µM and the IC50 worked out at 151 µM.

In the case of `COc1c(C)c(C/C=C(\C)CCCCO[Si](C(C)C)(C(C)C)C(C)C)c(OC)c2ccccc12`, the EC50 is over 200 µM and the IC50 amounted to 53.7 µM.

As to `C/C(=C\CNc1ncnc2c1ncn2CCC(=O)OC(C)(C)C)CO`, the EC50 is over 200 µM and the IC50 was over 200 µM.

Take `CC[C@H]1C[C@@H](O)[C@@H]2[C@H](O)[C@H](O)CN2C1`: the EC50 is over 200 µM and the IC50 was over 200 µM.

With `CCOC(=O)CSCn1ncc2ccc([N+](=O)[O-])cc21`, the result was inactive.

On to `O=C(O)CCc1nc(-c2ccccc2)c(-c2ccccc2)o1`, for which the EC50 was over 200 µM and the IC50 was over 200 µM.

`C=C(NC(=O)C(=C)NC(=O)c1ccc2c(n1)-c1coc(n1)C(=C)NC(=O)C(=C)NC(=O)c1nc(oc1C)C(=C)NC(=O)C(C(C)(C)O)NC(=O)C(=C)NC(=O)c1coc(n1)/C(=C/C)NC(=O)[C@H]([C@@H](C)O)NC(=O)c1csc-2n1)C(N)=O` (some centres not stated): the EC50 was over 100 µM and the IC50 was over 100 µM.

Regarding `CC(C)=CCC[C@@H](C)C1=C(O)C(N)=C(C)C(=O)C1=O`, the EC50 was over 200 µM and the IC50 came to 12 µM.

`CC1(C)CCc2cc3c(cc2O1)OC(C)(C)CC3=O`: the outcome was inactive.

Turning to `CCc1c(Cc2ccccc2)n(COCC[Se]c2ccccc2)c(=O)[nH]c1=O`, the EC50 was 4.27 µM and the IC50 was 28.8 µM.

For the molecule `COC(=O)CCc1cccnc1/C=N/O`, the EC50 is over 1200 µM and the IC50 is 126 µM.

Turning to `CC(=O)NC(CC(C)C(=O)O)(C(=O)O)C(=O)O` (configuration not stated), the EC50 was over 200 µM and the IC50 is over 200 µM.

On to `C[C@H](CS)C(=O)N1c2ccccc2C[C@H]1C(=O)O`, for which the EC50 is over 200 µM and the IC50 is over 200 µM.

Regarding `COC(=O)C(=O)C1CCCCC(C2=NC3NN=C(N)N3C2=O)C1=O` (configuration not stated), the EC50 was over 21.4 µM and the IC50 was over 21.4 µM.

Consider `CC(C)C1=CC23CCC4C(C)(C(=O)O)CCCC4(C)C2CC1C1C(=O)N(c2ccc(Cc4ccc(N5C(=O)C6C7CC8C9(C)CCCC(C)(C(=O)O)C9CCC8(C=C7C(C)C)C6C5=O)cc4)cc2)C(=O)C13` (configuration not stated), for which the EC50 is over 35.5 µM and the IC50 amounted to 13.8 µM.

With `CC(=O)Oc1ccc2cc(Oc3ccccc3)c(=O)oc2c1`, the EC50 was over 200 µM and the IC50 came to 85.1 µM.

With `O=C1CN(c2ccccc2)CC(=O)N2C(c3ccccc3)CCCN12` (configuration not stated), the outcome was inactive.

With `COc1ccc(N=Nc2c(N)nn3cc4c(nc23)CCCCC4)cc1`, the EC50 is over 200 µM and the IC50 is 34.7 µM.

In the case of `O=C(Nc1ccc(Sc2ccc(N=Nc3c(O)c(S(=O)(=O)O)cc4cc(S(=O)(=O)O)ccc34)cc2)cc1)c1ccc(N=Nc2ccc3c(S(=O)(=O)O)cccc3c2O)cc1`, the result was inactive.

`Nc1nn2cc3c(nc2c1N=Nc1ccc(Cl)cc1)CCC3`: the EC50 was over 151 µM and the IC50 was over 100 µM.

In the case of `COC(=O)C(N)CSSCC(N)C(=O)OC` (configuration not stated), the EC50 is over 324 µM and the IC50 was 123 µM.

For the molecule `CC(=O)NC(CC(C)C(C)=O)C(=O)O` (configuration not stated), the EC50 was over 200 µM and the IC50 was over 200 µM.

Consider `O=C(CCl)Nc1ccccc1-c1ccccc1NC(=O)CCl`, for which the outcome was inactive.

On to `O=C(O)c1cc(Cc2cc(C(c3ccc(O)c(C(=O)O)c3)c3ccc(O)c(C(=O)O)c3)cc(C(=O)O)c2O)ccc1O`, for which the EC50 was 95.5 µM and the IC50 is 195 µM.

For the molecule `O=c1c2cccnc2cc(-c2ccccc2)n1CCO`, the EC50 was over 200 µM and the IC50 was over 200 µM.

On to `O=c1cc(-c2ccccc2)oc2c(-c3cc(Cl)cc4c(=O)cc(-c5ccccc5)oc34)cc(Cl)cc12`, for which the EC50 was over 200 µM and the IC50 is 38.9 µM.

In the case of `CCOC1CC(C)N(C(=O)c2ccccc2)O1` (configuration not stated), the EC50 was over 200 µM and the half-inhibitory concentration (IC50) is over 200 µM.

For the molecule `O=C1NC(=O)c2c3ccc(c21)CCc1ccc(c2c1C(=O)NC2=O)CC3`, the EC50 is over 15.1 µM and the IC50 was over 15.1 µM.

As for `CCOC(=O)CSc1nc(-c2ccccc2)c(C#N)c(=O)[nH]1`, the result was inactive.

For the molecule `O=c1oc2ccccc2c(O)c1C(c1ccc([N+](=O)[O-])cc1)c1c(O)c2ccccc2oc1=O`, the outcome was inactive.

As for `COc1ccccc1N/N=c1\c2nc3ccccc3nc1n(-c1ccccc1C)c(=S)n2-c1ccc(Cl)cc1`, the EC50 was over 200 µM and the half-maximal inhibitory concentration (IC50) was found to be 178 µM.

Consider `CC(=O)c1c(O)c2ccccc2oc1=O`, for which the EC50 is over 200 µM and the IC50 came out at 120 µM.

In the case of `COCn1c2ccccc2c2nc(-c3ccncc3)nc(-c3ccncc3)c21`, the EC50 is over 3.98 µM and the IC50 was over 3.98 µM.
